Laboratory results as given in patent US9210927B2, “Pesticidal compositions and processes related thereto” (Dow AgroSciences LLC, priority 2013, dated 2015).

Columns and labels:
Format in all cases: in vivo
GPA (Myzus persicae) = test: Bioassays on Green Peach Aphid (GPA), foliar spray on cabbage seedlings; settings: 72 h, corrected % control (Abbott), 200 ppm spray on cabbage seedlings, three days, read-out: GPA Rating
Description: Bioassays on Green Peach Aphid (“GPA”) (Myzus persicae) Certain molecules disclosed in this document were tested against GPA using procedures described in the following example. In the reporting of the results, the “GPA Rating Table” was used (See Table Section). Cabbage seedlings grown in 3-inch pots, with 2-3 small (3-5 cm) true leaves, were used as test substrate. The seedlings were infested with 20-50 GPA (wingless adult and nymph stages) one day prior to chemical application. Four pots with individual seedlings were used for each treatment. Test compounds (2 mg) were dissolved in 2 mL of acetone/MeOH (1:1) solvent, forming stock solutions of 1000 ppm test compound. The stock solutions were diluted 5× with 0.025% Tween 20 in H2O to obtain the solution at 200 ppm test compound. A hand-held aspirator-type sprayer was used for spraying a solution to both sides of […] leaves until runoff. Reference plants (solvent check) were sprayed with the diluent only containing 20% by volume of acetone/MeOH (1:1) solvent. Treated plants were held in a holding room for three days at approximately 25° C. and ambient relative humidity (RH) prior to grading. Evaluation was conducted by counting the number of live aphids per plant under a microscope. Percent Control was measured by using Abbott's correction formula (W. S. Abbott, “A Method of Computing the Effectiveness of an Insecticide” J. Econ. Entomol. 18 (1925), pp. 265-267) as follows. Corrected % Control=100*(X−Y)/X • where • X=No. of live aphids on solvent check plants and • Y=No. of live aphids on treated plants The results are indicated in the table entitled “Table 3: Assay Results” (See Table Section).

CEW (Helicoverpa zea) = test: Bioassays on Corn Earworm (CEW), 128-well diet tray assay; settings: Helicoverpa zea, 168 h; percent mortality, second instar larvae, 50 μg/cm^2 on artificial diet, five to seven days, 25° C.; read-out: CEW Rating
Description: (§1) Bioassays on Beet Armyworm (“BAW”) and Corn Earworm (“CEW”) and Cabbage Looper (“CL”)
(§2) Certain molecules disclosed in this document were tested against BAW and CEW and CL using procedures described in the following examples. In the reporting of the results, the “BAW & CEW & CL Rating Table” was used (See Table Section).
Bioassays on CEW (Helicoverpa zea)
Bioassays on CEW were conducted using a 128-well diet tray assay. one to five second instar CEW larvae were placed in each well (3 mL) of the diet tray that had been previously filled with 1 mL of artificial diet to which 50 μg/cm^2 of the test compound (dissolved in 50 μL of 90:10 acetone-water mixture) had been applied (to each of eight wells) and then allowed to dry. Trays were covered with a clear self-adhesive cover, and held at 25° C., 14:10 light-dark for five to seven days. Percent mortality was recorded for the larvae in each well; activity in the eight wells was then averaged. The results are indicated in the table entitled “Table 3: Assay Results” (See Table Section).

BAW (Spodoptera exigua) = test: Bioassays on Beet Armyworm (BAW), 128-well diet tray assay; settings: Spodoptera exigua, 168 h, read-out: BAW Rating
Description: as §1, §2
Bioassays on BAW (Spodoptera exigua)
Bioassays on BAW were conducted using a 128-well diet tray assay. one to five second instar BAW larvae were placed in each well (3 mL) of the diet tray that had been previously filled with 1 mL of artificial diet to which 50 μg/cm^2 of the test compound (dissolved in 50 μL of 90:10 acetone-water mixture) had been applied (to each of eight wells) and then allowed to dry. Trays were covered with a clear self-adhesive cover, and held at 25° C., 14:10 light-dark for five to seven days. Percent mortality was recorded for the larvae in each well; activity in the eight wells was then averaged. The results are indicated in the table entitled “Table 3: Assay Results” (See Table Section).

Structure (SMILES)	pest or weed control at 200 ppm (GPA (Myzus persicae))	pest or weed control at 50 µg/cm2 (CEW (Helicoverpa zea))	pest or weed control at 50 µg/cm2 (BAW (Spodoptera exigua))
CNC(=O)c1ccc(/C=C/C(c2cc(Cl)cc(Cl)c2)C(F)(F)F)cc1 (stereo not drawn) [AC1]	0 to 80%	–	–
CN(C)C(=O)c1ccc(/C=C/C(c2cc(Cl)cc(Cl)c2)C(F)(F)F)cc1 (stereo not drawn) [AC3]	0 to 80%	–	–
O=C(NCC(F)(F)F)c1ccc(/C=C/C(c2cc(Cl)cc(Cl)c2)C(F)(F)F)cc1 (stereo not drawn) [AC4]	0 to 80%	50 to 100%	–
O=C(c1ccc(/C=C/C(c2cc(Cl)cc(Cl)c2)C(F)(F)F)cc1)N1CCOCC1 (stereo not drawn) [AC5]	0 to 80%	–	–
Cc1cc(/C=C/C(c2cc(Cl)cc(Cl)c2)C(F)(F)F)ccc1C(=O)NCC(F)(F)F (stereo not drawn) [AC6, (E)-4-(3-(3,5-Dichlorophenyl)-4,4,4-trifluorobut-1-enyl)-2-methyl-N-(2,2,2-trifluoroethyl)benzamide]	0 to 80%	50 to 100%	–
Cc1cc(/C=C/C(c2cc(Cl)cc(Cl)c2)C(F)(F)F)ccc1C(=O)NCc1ccc(Cl)nc1 (stereo not drawn) [AC7]	0 to 80%	50 to 100%	50 to 100%
Cc1cc(/C=C/C(c2cc(Cl)cc(Cl)c2)C(F)(F)F)ccc1C(=O)N1CCCC1=O (stereo not drawn) [AC8]	0 to 80%	0 to 50%	–
Cc1cc(/C=C/C(c2cc(Cl)cc(Cl)c2)C(F)(F)F)ccc1C(=O)NCc1ccccc1F (stereo not drawn) [AC9]	0 to 80%	50 to 100%	50 to 100%
Cc1cc(/C=C/C(c2cc(Cl)cc(Cl)c2)C(F)(F)F)ccc1C(=O)NC1CSC1 (stereo not drawn) [AC10]	0 to 80%	50 to 100%	50 to 100%
Cc1cc(/C=C/C(c2cc(Cl)cc(Cl)c2)C(F)(F)F)ccc1C(=O)NC1CS(=O)(=O)C1 (stereo not drawn) [AC13]	0 to 80%	50 to 100%	50 to 100%
Cc1cc(/C=C/C(c2cc(Cl)cc(Cl)c2)C(F)(F)F)ccc1C(=O)NCc1cnc(Cl)s1 (stereo not drawn) [AC15]	0 to 80%	50 to 100%	50 to 100%
Cc1cc(/C=C/C(c2cc(Cl)cc(Cl)c2)C(F)(F)F)ccc1C(=O)NNc1ccccc1F (stereo not drawn) [AC17]	0 to 80%	50 to 100%	50 to 100%
Cc1cc(/C=C/C(c2cc(Cl)cc(Cl)c2)C(F)(F)F)ccc1C(=O)NCc1ncccn1 (stereo not drawn) [AC18]	0 to 80%	50 to 100%	50 to 100%
Cc1cc(/C=C/C(c2cc(Cl)cc(Cl)c2)C(F)(F)F)ccc1C(=O)NCC1CCOC1 (stereo not drawn) [AC19]	0 to 80%	–	–
Cc1cc(/C=C/C(c2cc(Cl)c(Cl)c(Cl)c2)C(F)(F)F)ccc1C(=O)NC1CSC1 (stereo not drawn) [AC23]	0 to 80%	50 to 100%	50 to 100%
Cc1cc(/C=C/C(c2cc(Cl)c(Cl)c(Cl)c2)C(F)(F)F)ccc1C(=O)NCc1cnc(Cl)s1 (stereo not drawn) [AC26]	0 to 80%	50 to 100%	50 to 100%
Cc1cc(/C=C/C(c2cc(Cl)cc(Cl)c2)C(F)(F)F)ccc1C(=O)NCC(=O)NNC(=O)C1CC1 (stereo not drawn) [AC47]	0 to 80%	–	–
Cc1cc(/C=C/C(c2cc(Cl)cc(Cl)c2)C(F)(F)F)ccc1C(=O)NCc1nccn1C (stereo not drawn) [AC50]	0 to 80%	–	50 to 100%
COc1cc(/C=C/C(c2cc(Cl)c(F)c(Cl)c2)C(F)(F)F)ccc1C(=O)NCc1ccc(Cl)nc1 (stereo not drawn) [AC70]	0 to 80%	–	–
Cc1cc(/C=C\C(c2cc(Cl)cc(Cl)c2)C(F)(F)F)ccc1C(=O)NCc1ccc(Cl)nc1 (stereo not drawn) [AC94]	0 to 80%	0 to 50%	–
Cc1cc(/C=C/C(c2cc(Cl)cc(Cl)c2)C(F)(F)F)ccc1C(=O)N(C)Cc1ccc(Cl)nc1 (stereo not drawn) [AC117]	0 to 80%	–	50 to 100%

Structure (SMILES)	pest or weed control at 200 ppm (GPA (Myzus persicae))	pest or weed control at 50 µg/cm2 (CEW (Helicoverpa zea))	pest or weed control at 50 µg/cm2 (BAW (Spodoptera exigua))
CC(C)(C)C(=O)NCc1ccc(/C=C/C(c2cc(Cl)c(Cl)c(Cl)c2)C(F)(F)F)cc1Cl (stereo not drawn) [CC12]	0 to 80%	–	–
O=C(NCc1ccc(/C=C/C(c2cc(Cl)c(Cl)c(Cl)c2)C(F)(F)F)cc1Br)C1CC1 (stereo not drawn) [CC26]	0 to 80%	–	50 to 100%
CC(C)(C)OC(=O)NCc1ccc(/C=C/C(c2cc(Cl)c(Cl)c(Cl)c2)C(F)(F)F)cc1Cl (stereo not drawn) [CC39]	0 to 80%	–	–
COC(=O)C(=O)NCc1ccc(/C=C/C(c2cc(Cl)c(Cl)c(Cl)c2)C(F)(F)F)cc1Cl (stereo not drawn) [CC41, (E)-Methyl 2-((2-chloro-4-(4,4,4-trifluoro-3-(3,4,5-trichlorophenyl)but-1-en-1-yl)benzyl)amino)-2-oxoacetate]	0 to 80%	–	–
O=C(CC(F)(F)F)NOc1ccc(/C=C/C(c2cc(Cl)c(Cl)c(Cl)c2)C(F)(F)F)cc1 (stereo not drawn) [CC53]	0 to 80%	–	–
Cc1cc(/C=C/C(c2cc(Cl)c(Cl)c(Cl)c2)C(F)(F)F)cc(C#N)c1-n1cncn1 (stereo not drawn) [DC45]	–	50 to 100%	50 to 100%
N#Cc1cc(/C=C\C(c2cc(Cl)c(F)c(Cl)c2)C(F)(F)F)ccc1-n1cncn1 (stereo not drawn) [DC46]	–	50 to 100%	50 to 100%
FC(F)(F)C(/C=C/c1ccc(-n2cncn2)c(Br)c1)c1cc(Cl)cc(Cl)c1 (stereo not drawn) [DC47]	–	50 to 100%	50 to 100%
Fc1cc(/C=C/C(c2cc(Cl)cc(Cl)c2)C(F)(F)F)ccc1-n1cncn1 (stereo not drawn) [DC48]	–	50 to 100%	50 to 100%
FC(F)(F)C(/C=C/c1ccc(-n2cncn2)c(Cl)c1)c1cc(Cl)c(Cl)c(Cl)c1 (stereo not drawn) [DC49]	–	50 to 100%	50 to 100%
FC(F)(F)C(/C=C/c1ccc(-n2cncn2)c(Cl)c1)c1cc(Cl)cc(Cl)c1 (stereo not drawn) [DC50]	–	50 to 100%	50 to 100%
FC(F)(F)c1cc(/C=C/C(c2cc(Cl)cc(Cl)c2)C(F)(F)F)ccc1-n1cncn1 (stereo not drawn) [DC51]	–	50 to 100%	50 to 100%
CNc1cc(/C=C/C(c2cc(Cl)cc(Cl)c2)C(F)(F)F)ccc1-n1cncn1 (stereo not drawn) [DC57, (E)-5-(3-(3,5-Dichlorophenyl)-4,4,4-trifluorobut-1-en-1-yl)-N-methyl-2-(1H-1,2,4-triazol-1-yl)aniline]	–	50 to 100%	50 to 100%
CCOC(=O)c1cc(/C=C/C(c2cc(Cl)cc(Cl)c2)C(F)(F)F)ccc1-n1cncn1 (stereo not drawn) [DC60]	–	50 to 100%	50 to 100%
Cc1cc(/C=C/C(c2cc(Cl)cc(Cl)c2)C(F)(F)F)ccc1-n1cncn1 (stereo not drawn) [DC62]	–	50 to 100%	50 to 100%
Cc1cc(/C=C/C(c2cc(Cl)c(Cl)c(Cl)c2)C(F)(F)F)ccc1-n1cncn1 (stereo not drawn) [DC63]	–	50 to 100%	50 to 100%
FC(F)(F)C(/C=C/c1ccc(-n2cncn2)cc1Cl)c1cc(Cl)c(Cl)c(Cl)c1 (stereo not drawn) [DC66]	–	50 to 100%	50 to 100%
FC(F)(F)C(/C=C/c1ccc(-n2cncn2)cc1Cl)c1cc(Cl)cc(Cl)c1 (stereo not drawn) [DC67]	–	50 to 100%	50 to 100%
C/C(=C\C(c1cc(Cl)cc(Cl)c1)C(F)(F)F)c1ccc(-n2cncn2)cc1 (stereo not drawn) [DC68, (E)-1-(4-(4-(3,5-Dichlorophenyl)-5,5,5-trifluoropent-2-en-2-yl)phenyl)-1H-1,2,4-triazole]	–	50 to 100%	50 to 100%
COC(/C=C/c1ccc(-n2cncn2)cc1)(c1cc(Cl)cc(Cl)c1)C(F)(F)F (stereo not drawn) [DC70, (E)-1-(4-(3-(3,5-Dichlorophenyl)-4,4,4-trifluoro-3-methoxybut-1-en-1-yl)phenyl)-1H-1,2,4-triazole]	–	50 to 100%	50 to 100%
